Source: ChEMBL document CHEMBL3232814, “Synthesis and anticancer structure activity relationship investigation of cationic anthraquinone analogs” (2014)

Columns and labels:
Format in all cases: functional
[1] = Growth inhibition of human NCI60 cells assessed as cell growth; set-up: concentration or dose not given beside the values
[2] = Growth inhibition of human LOXIMVI cells; conditions: LOX IMVI
Malme-3M = assay: Growth inhibition of human MALME-3M cells; conditions: for CC50: read-out: LC50 (the source's name)
M14 = assay: Growth inhibition of human M14 cells; conditions: for CC50: read-out: LC50 (the source's name)
MDA-MB-435 = assay: Growth inhibition of human MDA-MB-435 cells; conditions: for CC50: read-out: LC50 (the source's name)
SK-MEL-2 = assay: Growth inhibition of human SK-MEL-2 cells; conditions: for CC50: read-out: LC50 (the source's name)
SK-MEL-28 = assay: Growth inhibition of human SK-MEL-28 cells; conditions: for CC50: read-out: LC50 (the source's name)
[3] = Growth inhibition of human UACC257 cells; conditions: for GI50: UACC-257; for CC50: UACC-257, read-out: LC50 (the source's name)
[4] = Growth inhibition of human UACC62 cells; conditions: for GI50: UACC-62; for CC50: UACC-62, read-out: LC50 (the source's name)
COLO 205 = assay: Growth inhibition of human COLO205 cells; conditions: for CC50: read-out: LC50 (the source's name)
[5] = Growth inhibition of human HCC2998 cells; conditions: for GI50: HCC 2998; for CC50: HCC 2998, read-out: LC50 (the source's name)
HCT-116 = assay: Growth inhibition of human HCT116 cells; conditions: for CC50: read-out: LC50 (the source's name)
[6] = Growth inhibition of human HCT15 cells; conditions: for GI50: HCT-15; for CC50: HCT-15, read-out: LC50 (the source's name)
HT-29 = assay: Growth inhibition of human HT-29 cells
KM12 = assay: Growth inhibition of human KM12 cells; conditions: for CC50: read-out: LC50 (the source's name)
SW-620 = assay: Growth inhibition of human SW620 cells; conditions: for CC50: read-out: LC50 (the source's name)
A549 = assay: Growth inhibition of human A549 cells; conditions: for CC50: read-out: LC50 (the source's name)
[7] = Growth inhibition of human EKVX cells
HOP-62 = assay: Growth inhibition of human HOP62 cells; conditions: for CC50: read-out: LC50 (the source's name)
[8] = Growth inhibition of human HOP92 cells; conditions: for GI50: HOP-92; for CC50: HOP-92, read-out: LC50 (the source's name)
NCI-H226 = assay: Growth inhibition of human NCI-H226 cells; conditions: for CC50: read-out: LC50 (the source's name)
NCI-H23 = assay: Growth inhibition of human NCI-H23 cells; conditions: for CC50: read-out: LC50 (the source's name)
NCI-H322M = assay: Growth inhibition of human NCI-H322M cells; conditions: for CC50: read-out: LC50 (the source's name)
NCI-H460 = assay: Growth inhibition of human NCI-H460 cells; conditions: for CC50: read-out: LC50 (the source's name)
NCI-H522 = assay: Growth inhibition of human NCI-H522 cells; conditions: for CC50: read-out: LC50 (the source's name)
SF-268 = assay: Growth inhibition of human SF268 cells; conditions: for CC50: read-out: LC50 (the source's name)
[9] = Growth inhibition of human SF295 cells; conditions: SF-295
[10] = Growth inhibition of human SF539 cells; conditions: for GI50: SF-539; for CC50: SF-539, read-out: LC50 (the source's name)
SNB-19 = assay: Growth inhibition of human SNB19 cells
SNB-75 = assay: Growth inhibition of human SNB75 cells; conditions: for CC50: read-out: LC50 (the source's name)
U-251 = assay: Growth inhibition of human U251 cells
Staphylococcus aureus = assay: Antimicrobial activity against Staphylococcus aureus ATCC 25923 after 12 to 18 hrs by 2-fold serial dilution method
SK-MEL-5 = assay: Growth inhibition of human SK-MEL-5 cells
[11] = read-out: LC50 (the source's name)

For `Cc1ccc(-n2n[n+](C)c3c2C(=O)c2ccccc2C3=O)cc1.O=S(=O)([O-])C(F)(F)F`, the Activity [1] was 11.53%, the GI50 [2] was 1800 nM and the CC50 [2, 11] was 23000 nM. The GI50 (Malme-3M) was 320 nM, the CC50 (Malme-3M) was 13000 nM and the GI50 (M14) was 260 nM. It also gave a CC50 (M14) of 3570 nM, a GI50 (MDA-MB-435) of 170 nM and a CC50 (MDA-MB-435) of 600 nM. It also gave a GI50 (SK-MEL-2) of 2170 nM, a CC50 (SK-MEL-2) of 41100 nM and a GI50 (SK-MEL-28) of 2650 nM. The CC50 (SK-MEL-28) was 36500 nM, the GI50 [3] was 1850 nM and the CC50 [3] was 17700 nM. It also gave a GI50 [4] of 1650 nM, a CC50 [4] of 6380 nM and a GI50 (COLO 205) of 430 nM. The CC50 (COLO 205) was 4430 nM, the GI50 [5] was 1130 nM and the CC50 [5] was 5400 nM. For the same molecule, the GI50 (HCT-116) was 1550 nM, the CC50 (HCT-116) was 7920 nM and the GI50 [6] was 2440 nM. For the same molecule, the CC50 [6] was 41200 nM, the GI50 (HT-29) was 2100 nM and the LC50 (HT-29) was greater than 100000 nM. The GI50 (KM12) was 1380 nM, the CC50 (KM12) was 13900 nM and the GI50 (SW-620) was 1760 nM. For the same molecule, the CC50 (SW-620) was 19200 nM, the GI50 (A549) was 1110 nM and the CC50 (A549) was 10000 nM. The GI50 [7] was 4160 nM, the CC50 [7, 11] was 46800 nM and the GI50 (HOP-62) was 2160 nM. It also gave a CC50 (HOP-62) of 17800 nM, a GI50 [8] of 420 nM and a CC50 [8] of 46800 nM. The GI50 (NCI-H226) was 2930 nM, the CC50 (NCI-H226) was 36100 nM and the GI50 (NCI-H23) was 650 nM. The CC50 (NCI-H23) was 6070 nM, the GI50 (NCI-H322M) was 880 nM and the CC50 (NCI-H322M) was 5380 nM. For the same molecule, the GI50 (NCI-H460) was 330 nM, the CC50 (NCI-H460) was 6130 nM and the GI50 (NCI-H522) was 8140 nM. For the same molecule, the CC50 (NCI-H522) was 60000 nM, the GI50 (SF-268) was 3140 nM and the CC50 (SF-268) was 4430 nM. The GI50 [9] was 1040 nM, the LC50 (concentration killing 50% of cells) [9] was 5400 nM and the GI50 [10] was 1970 nM. For the same molecule, the CC50 [10] was 9890 nM, the GI50 (SNB-19) was 1390 nM and the LC50 (SNB-19) was 5480 nM. It also gave a GI50 (SNB-75) of 2090 nM, a CC50 (SNB-75) of 8910 nM and a GI50 (U-251) of 2430 nM. It also gave an LC50 (U-251) of 31800 nM and an MIC (Staphylococcus aureus) of 4 µg/mL.

In the case of `COc1ccc(-n2n[n+](C)c3c2C(=O)c2ccccc2C3=O)cc1OC.O=S(=O)([O-])C(F)(F)F`, the Activity [1] is reported as -31.51%, the GI50 [2] is reported as 1140 nM and the GI50 (Malme-3M) is reported as 210 nM. It also gave a CC50 (Malme-3M) of 1880 nM, a GI50 (M14) of 330 nM and a CC50 (M14) of 3470 nM. For the same molecule, the GI50 (MDA-MB-435) was 190 nM, the CC50 (MDA-MB-435) was 640 nM and the GI50 (SK-MEL-2) was 1400 nM. The CC50 (SK-MEL-2) was 7370 nM, the GI50 (SK-MEL-28) was 1340 nM and the CC50 (SK-MEL-28) was 6470 nM. It also gave a GI50 (SK-MEL-5) of 160 nM, an LC50 (lethal concentration 50) (SK-MEL-5) of 570 nM and a GI50 [3] of 1490 nM. The CC50 [3] was 5340 nM, the GI50 [4] was 1220 nM and the CC50 [4] was 5090 nM. It also gave a GI50 (COLO 205) of 310 nM, a CC50 (COLO 205) of 5710 nM and a GI50 [5] of 1650 nM. For the same molecule, the CC50 [5] was 5790 nM, the GI50 (HCT-116) was 1160 nM and the CC50 (HCT-116) was 9530 nM. It also gave a GI50 [6] of 1110 nM, a CC50 [6] of 6060 nM and a GI50 (HT-29) of 550 nM. It also gave an LC50 (HT-29) of 22200 nM, a GI50 (KM12) of 1380 nM and a CC50 (KM12) of 7230 nM. It also gave a GI50 (SW-620) of 1660 nM, a CC50 (SW-620) of 8870 nM and a GI50 (A549) of 400 nM. The CC50 (A549) was 8970 nM, the GI50 (HOP-62) was 1230 nM and the CC50 (HOP-62) was 5640 nM. It also gave a GI50 [8] of 2270 nM, a CC50 [8] of 58800 nM and a GI50 (NCI-H226) of 1300 nM. The CC50 (NCI-H226) was 6850 nM, the GI50 (NCI-H23) was 1060 nM and the CC50 (NCI-H23) was greater than 100000 nM. It also gave a GI50 (NCI-H322M) of 300 nM, a CC50 (NCI-H322M) of 3340 nM and a GI50 (NCI-H460) of 360 nM. For the same molecule, the CC50 (NCI-H460) was 8210 nM, the GI50 (NCI-H522) was 2000 nM and the CC50 (NCI-H522) was 6860 nM. The GI50 (SF-268) was 1230 nM, the CC50 (SF-268) was greater than 100000 nM and the GI50 [9] was 200 nM. For the same molecule, the LC50 (concentration killing 50% of cells) [9] was 950 nM, the GI50 [10] was 500 nM and the CC50 [10] was 4080 nM. The GI50 (SNB-19) was 1140 nM, the LC50 (SNB-19) was 4870 nM and the GI50 (SNB-75) was 820 nM. For the same molecule, the CC50 (SNB-75) was 4560 nM, the GI50 (U-251) was 1340 nM and the LC50 (U-251) was 5110 nM. It also gave an MIC (Staphylococcus aureus) of 4 µg/mL.
